Reference: PubChem BioAssay (NCI)
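Assay format: 96-well plates, 48-hour exposure. Abbreviation: GI50, concentration required for 50% inhibition of growth. TGI is the concentration that stops growth completely.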

Tests used:
Assay in all cases: inhibition of tumour cell growth, NCI panel, 48 h
[1] = test system: DLD-1 colon
[2] = test system: IGROV1 ovarian
[3] = test system: SN12C renal
[4] = test system: HL-60(TB) leukemia
[5] = test system: SF-539 CNS
[6] = test system: SK-MEL-5 melanoma
[7] = test system: NCI-H522 lung
[8] = test system: SK-OV-3 ovarian
[9] = test system: SNB-19 CNS
[10] = test system: HCC-2998 colon
[11] = test system: 786-0 renal
[12] = test system: UACC-257 melanoma
[13] = test system: SK-MEL-2 melanoma
[14] = test system: HT29 colon
[15] = test system: NCI-H460 lung
[16] = test system: SF-295 CNS
[17] = test system: A549 NSCLC
[18] = test system: MOLT-4 leukemia
[19] = test system: KM20L2 colon
[20] = test system: RXF 393 renal
[21] = test system: DMS 114 small cell lung
[22] = test system: OVCAR-5 ovarian
[23] = test system: HOP-62 NSCLC
[24] = test system: DMS 273 small cell lung
[25] = test system: A498 renal
[26] = test system: LOX IMVI melanoma
[27] = test system: RPMI-8226 leukemia
[28] = test system: TK-10 renal
[29] = test system: UO-31 renal
[30] = test system: XF 498 CNS
[31] = test system: ACHN renal
[32] = test system: MALME-3M melanoma
[33] = test system: COLO 205 colon
[34] = test system: M14 melanoma
[35] = test system: NCI-H23 lung
[36] = test system: OVCAR-4 ovarian
[37] = test system: CAKI-1 renal
[38] = test system: SNB-78 CNS
[39] = test system: NCI-H226 lung
[40] = test system: LXFL 529 NSCLC
[41] = test system: SR leukemia
[42] = test system: SK-MEL-28 melanoma
[43] = test system: SNB-75 CNS
[44] = test system: OVCAR-3 ovarian
[45] = test system: HCT-15 colon
[46] = test system: EKVX NSCLC
[47] = test system: OVCAR-8 ovarian
[48] = test system: K-562 leukemia
[49] = test system: KM12 colon
[50] = test system: M19-MEL melanoma
[51] = test system: HOP-92 NSCLC
[52] = test system: SW-620 colon
[53] = test system: U251 CNS
[54] = test system: UACC-62 melanoma
[55] = test system: HCT-116 colon

## CCC[CH2][Sn]1([CH2]CCC)[O]N=Cc2ccccc2[O]1
[1]
  GI50: 1350 nM
  TGI: 2720 nM
[2]
  GI50: 1030 nM
  TGI: 2250 nM
[3]
  GI50: 1270 nM
  TGI: 2540 nM
[4]
  GI50: 183 nM
  TGI: 726 nM
[5]
  GI50: 1170 nM
  TGI: 2430 nM
[6]
  GI50: 1460 nM
  TGI: 2830 nM
[7]
  GI50: 102 nM
  TGI: 229 nM
[8]
  GI50: 2960 nM
  TGI: 6150 nM
[9]
  GI50: 1090 nM
  TGI: 2330 nM
[10]
  GI50: 1320 nM
  TGI: 2830 nM
[11]
  GI50: 608 nM
  TGI: 1890 nM
[12]
  GI50: 1310 nM
  TGI: 2740 nM
[13]
  GI50: 317 nM
  TGI: 1070 nM
[14]
  GI50: 1750 nM
  TGI: 3360 nM
[15]
  GI50: 1440 nM
  TGI: 2760 nM
[16]
  GI50: 930 nM
  TGI: 2130 nM
[17]
  GI50: 1840 nM
  TGI: 3800 nM
[18]
  GI50: 335 nM
  TGI: 1900 nM
[19]
  GI50: 1260 nM
  TGI: 2550 nM
[20]
  GI50: 224 nM
  TGI: 1050 nM
[21]
  GI50: 309 nM
  TGI: 940 nM
[22]
  GI50: 1690 nM
  TGI: 3080 nM
[23]
  GI50: 1620 nM
  TGI: 3120 nM
[24]
  GI50: 1320 nM
  TGI: 2610 nM
[25]
  GI50: 1430 nM
  TGI: 2800 nM
[26]
  GI50: 377 nM
  TGI: 1350 nM
[27]
  GI50: 231 nM
  TGI: 848 nM
[28]
  GI50: 555 nM
  TGI: 1720 nM
[29]
  GI50: 1330 nM
  TGI: 2610 nM
[30]
  GI50: 1390 nM
  TGI: 2720 nM
[31]
  GI50: 1180 nM
  TGI: 2430 nM
[32]
  GI50: 439 nM
  TGI: 978 nM
[33]
  GI50: 713 nM
  TGI: 1960 nM
[34]
  GI50: 780 nM
  TGI: 2090 nM
[35]
  GI50: 413 nM
  TGI: 1680 nM
[36]
  GI50: 2030 nM
  TGI: 3510 nM
[37]
  GI50: 322 nM
  TGI: 1080 nM
[38]
  GI50: 287 nM
  TGI: 811 nM
[39]
  GI50: 1930 nM
  TGI: 3490 nM
[40]
  GI50: 142 nM
  TGI: 447 nM
[41]
  GI50: 342 nM
  TGI: 2750 nM
[42]
  GI50: 580 nM
  TGI: 1870 nM
[43]
  GI50: 359 nM
  TGI: 1540 nM
[44]
  GI50: 402 nM
  TGI: 1570 nM
[45]
  GI50: 808 nM
  TGI: 2040 nM
[46]
  GI50: 1110 nM
  TGI: 2390 nM
[47]
  GI50: 890 nM
  TGI: 2120 nM
[48]
  GI50: 192 nM
  TGI: 1330 nM
[49]
  GI50: 1470 nM
  TGI: 2780 nM
[50]
  GI50: 815 nM
  TGI: 2080 nM
[51]
  GI50: 1220 nM
  TGI: 2490 nM
[52]
  GI50: 241 nM
  TGI: 1110 nM
[53]
  GI50: 387 nM
  TGI: 1410 nM
[54]
  GI50: 413 nM
  TGI: 1700 nM
[55]
  GI50: 1430 nM
  TGI: 2730 nM
